Drawing on PubChem BioAssay (NCI), this text covers TGI and GI50 for 22 molecules.

Holding throughout (assay): NCI anticancer screen, dose series, 48 h
The test system of assay [1] is ACHN renal.
The subject of assay [2] is HCT-116 colon.
Assay [3] concerns HCT-15 colon.
Assay [4] relates to KM12 colon.
Assay [5] relates to MDA-MB-231 breast.
For assay [6], the system named is MOLT-4 leukemia.
Assay [7] concerns NCI-H23 lung.
Assay [8] concerns RXF 393 renal.
The test system of assay [9] is SF-268 CNS.
Assay [10] concerns T-47D breast.
Assay [11] deals with TK-10 renal.
In assay [12] the test system is U251 CNS.
Assay [13] relates to UACC-257 melanoma.

Each structure is given as a SMILES string. “And” between values parts separate entries of the source, which are not always exact repeats. Equal values may be shown once.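 Assay format: 96-well plates, 48-hour exposure. GI50: concentration for 50% inhibition of growth. At the TGI there is no net growth.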

For the molecule `O=C1c2cc([N+](=O)[O-])sc2C(=O)c2cc([N+](=O)[O-])sc21`, the TGI in assay [1] was 10.1 µM; in [2] it was 3.24 µM; in assay [3] it was 3.55 µM; in assay [4], 14.8 µM; in assay [5] it was 5.66 µM; in [6], more than 22.7 µM. Besides, the TGI in [7] turned out to be 15.5 µM; in assay [8], 15.5 µM; in assay [9] it was 10 µM; in assay [10], 10.8 µM; in [11], 13 µM; in [12], 3.38 µM. Also, the TGI in assay [13] is 11.8 µM.

Take `Clc1nc(Nc2nc3ccccc3[nH]2)nc(Cl)c1-c1ccccc1`: the TGI in [1] was 34.7 µM; in assay [2], more than 100 µM; in [3], 34.2 µM; in [4], more than 100 µM; in assay [5], 29.1 µM; in assay [6], more than 100 µM. In addition, the TGI in assay [7] was 58.4 µM; in assay [8], 35.6 µM; in assay [9], more than 100 µM; in assay [10] it was more than 100 µM; in assay [11], more than 100 µM; in assay [12], 32.7 µM. For the same molecule, the TGI in assay [13] amounted to 80.2 µM.

For `CCSc1nc(C)nc2c1sc1nc3ccccc3n12`, the TGI in [1], in assay [2], in assay [3], in [4], in assay [5] and in assay [6] was more than 100 µM in each case. Also, the TGI in assay [7], in [8], in [9], in [10], in assay [11] and in [12] was more than 100 µM each time. The TGI in [13] was more than 100 µM.

Consider `C=C(C)C1CC2=C(O1)C(=O)c1cccc(O)c1C2=O` (stereo not drawn), for which the TGI amounted to 3.23 µM in assay [1]; 4.36 µM in assay [3]; 3.27 µM in [4]; 3.64 µM in assay [5]; 0.422 µM in assay [6]; 0.935 µM in assay [7]. Also, the TGI in assay [8] is 2.54 µM; in assay [9], 1.47 µM; in assay [10], 3.04 µM; in assay [11] it was 5.37 µM; in assay [12], 3.01 µM; in [13] it was 1.01 µM.

In the case of `COc1cc(C(=O)N(C(=S)OC23CC4CC(CC(C4)C2)C3)c2ccccc2)cc(OC)c1OC`, the TGI in assay [1] is more than 100 µM; in assay [2], 46.4 µM; in assay [3] it was more than 100 µM; in assay [4], more than 100 µM; in assay [5], more than 100 µM; in assay [6], 21.8 µM. Moreover, the TGI is more than 100 µM in assay [7]; more than 100 µM in [8]; more than 100 µM in [9]; more than 100 µM in assay [10]; more than 100 µM in assay [11]; 53 µM in [12]. Further, the TGI in assay [13] was more than 100 µM.

With `NS(=O)(=O)c1nnc(NC(=O)/C=C/C(=O)O)s1`, the TGI in assay [1], in assay [2], in [3], in assay [4], in [5] and in assay [6] was more than 100 µM throughout. Further, the TGI in assay [7], in assay [8], in [9], in assay [10], in assay [11] and in assay [12] was more than 100 µM in each case. Further, in assay [13], the TGI was more than 100 µM.

Take `COc1ccc(Br)c(C=Nc2cccc3cc(OC)c(OC)cc23)c1`: the TGI is more than 73.8 µM in assay [1]; 34.2 µM in [2]; 16.4 µM in [3]; more than 95.7 µM in assay [4]; more than 46.4 µM in [5]; more than 62.4 µM in assay [6]. Besides, the TGI was more than 100 µM in assay [7]; more than 100 µM in assay [8]; more than 100 µM in [9]; more than 100 µM in assay [10]; 71.6 µM in assay [11]; 12.1 µM in [12]. For the same molecule, the TGI in [13] was more than 100 µM.

Consider `Cc1nn(C(=O)c2ccncc2)c2c1C(c1ccc([N+](=O)[O-])cc1)SC(N)=N2` (stereo not drawn), for which the TGI in [1], in assay [2], in assay [3], in assay [4], in [5] and in assay [6] was more than 100 µM in each case. The TGI in assay [7], in assay [8], in assay [9], in assay [10], in [11] and in assay [12] was more than 100 µM each time. In assay [13], this molecule registered a TGI of more than 100 µM.

`CC1(C)CC[C@]2(C(=O)O)CC[C@]3(C)C(=CC[C@@H]4[C@@]5(C)CC[C@H](OC6OC(CO)C(O)C(O)C6O)C(C)(C)[C@@H]5CC[C@]43C)[C@@H]2C1` (stereo partly drawn): the TGI in [1] turned out to be 3.04 µM; in [2] it was 3.13 µM; in assay [3] it was 10.7 µM; in assay [4], 2.86 µM; in [5], 3.07 µM; in [6], 4.55 µM. Also, the TGI in assay [7] came to 3.52 µM; in assay [8], 3.77 µM; in [9], 3.51 µM; in [10], 3.55 µM; in [12] it was 3.05 µM; in assay [13] it was 3.13 µM.

As to `C=CC(C)(C)n1cc(C2=C(O)C(=O)C(c3c(CC=C(C)C)[nH]c4ccccc34)=C(O)C2=O)c2ccccc21`, the TGI in assay [1] amounted to 4.32 µM; in [2] it was 5.59 µM; in [3] it was 7.6 µM; in assay [4] it was 2.63 µM; in [5], 7.78 µM; in assay [6], 9.51 µM. For the same molecule, the TGI in [7] worked out at 19.6 µM; in [8], 6.05 µM; in [9], 5.13 µM; in [10] it was 7.59 µM; in [12], 3.33 µM; in assay [13], 9.3 µM.

In the case of `CC(C)C1=CC23CCC4C(C)(C(=O)O)CCCC4(C)C2CC1C1C(=O)N(c2cccc(N4C(=O)C5C6CC7C8(C)CCCC(C)(C(=O)O)C8CCC7(C=C6C(C)C)C5C4=O)c2)C(=O)C13` (stereo not drawn), the TGI in assay [1] was found to be 26.1 µM; in [2], 21.3 µM; in assay [3] it was 26.9 µM; in [4], 9.7 µM; in assay [5], 39.2 µM; in assay [6], 40.1 µM. Further, the TGI in assay [7] stood at 12.2 µM; in [8], 27 µM; in assay [9] it was 27.8 µM; in assay [10], 33.7 µM; in assay [11] it was 30.4 µM; in assay [12], 11 µM.

For `C=COC(=O)N1C2CCCC(Cl)(C(C)=O)C1CC2` (stereo not drawn), the TGI in assay [1], in assay [2], in assay [3], in assay [4], in assay [5] and in [6] was more than 100 µM throughout. The TGI in assay [7], in assay [9], in [10], in assay [11], in assay [12] and in assay [13] was more than 100 µM throughout.

Take `CN(C(=O)c1ccc(Cl)cc1)C(=S)N1CCN(c2ccccc2)CC1`: the TGI in assay [1], in assay [3], in assay [4], in assay [5], in [6] and in assay [7] was more than 100 µM throughout. Also, the TGI in assay [8], in assay [9], in assay [10], in [11], in assay [12] and in [13] was more than 100 µM throughout.

`O=C(c1cccc2cc(O)ccc12)c1cn(CCN2CCOCC2)c2ccccc12`: the TGI in assay [1] was more than 100 µM; in assay [2] it was 38.9 µM; in assay [5], 45.3 µM; in assay [6], 62.9 µM; in assay [7], more than 100 µM; in assay [8], 43.6 µM. In addition, the TGI in assay [9] was more than 100 µM; in assay [10], more than 100 µM; in assay [11], 50.9 µM; in assay [13], 56 µM.

Take `S=C(S)N1CCN(c2ccccc2)CC1`: the TGI in [1], in assay [2], in assay [3], in [4], in assay [5] and in assay [8] was more than 100 µM in each case. Also, the TGI in assay [9], in assay [10], in assay [11], in assay [12] and in [13] was more than 100 µM in each case.

As to `COC1C(OC(C)=O)CC(=O)OC(C)C/C=C/C=C\C(O)C(C)CC(CC=O)C1OC1OC(C)C(OC2CC(C)(O)C(OC(=O)CC(C)C)C(C)O2)C(N(C)C)C1O` (stereo not drawn), the TGI in assay [1], in assay [2], in assay [3], in assay [4], in assay [5] and in assay [7] was more than 100 µM each time. The TGI in assay [8], in assay [9], in [10], in assay [11], in [12] and in assay [13] was more than 100 µM in each case. Further, the GI50 in assay [3] is 36.4 µM and > 100 µM; in [4] it was 37.9 µM and 85.3 µM.

Consider `COc1ncc(C#CC(=O)c2ccccc2)c(OC)n1`, for which the TGI in assay [1] worked out at 3.7 µM; in [2], 10.1 µM; in [3], 3.18 µM; in assay [4], 22.9 µM; in [5] it was 5.49 µM; in [6], 2.38 µM. In addition, the TGI in [7] amounted to 10.9 µM; in assay [8], 3.79 µM; in assay [9] it was 26.4 µM; in assay [10], 15.8 µM; in [12], 9.59 µM; in assay [13], 14.7 µM.

In the case of `COc1cc(OC2OC(CO)C(O)C(O)C2O)c2c(c1)O[C@@H]1[C@H](O)Oc3cc(OC)c(OC)cc3[C@]1(O)C2=O` (stereo partly drawn), the TGI in [1], in [2], in assay [3], in [4], in [5] and in assay [6] was more than 25 µM each time. For the same molecule, the TGI in assay [7], in assay [9], in [10], in assay [11], in assay [12] and in assay [13] was more than 25 µM in each case.

Take `CCN(CCCl)c1cc(CN(C)C)cc(NC(=O)c2ccc(C(=O)Nc3ccccc3)cc2)c1`: the TGI in assay [2] amounted to 11.5 µM; in assay [3], 4.53 µM; in assay [4] it was 2.8 µM; in assay [5] it was 7.55 µM; in assay [6], 1.78 µM; in [7], 1.27 µM. The TGI in [8] turned out to be 0.307 µM; in [9], 13.6 µM; in [10], 9.91 µM; in [11], 7.57 µM; in assay [13], 3.27 µM.

As to `COc1ccc(NC(=O)CC(=O)N2N=C(C)C(N=Nc3ccc(C(=O)O)cc3)C2=O)cc1` (stereo not drawn), the TGI in assay [1], in assay [2], in assay [3], in [4], in assay [5] and in assay [7] was more than 100 µM in each case. Further, the TGI in assay [8], in [9], in assay [10], in assay [11], in assay [12] and in assay [13] was more than 100 µM each time.

Turning to `CCOC(=O)/C=C(/C(=O)OCC)n1ccc(=O)n(CC(=O)OCC)c1=O`, the TGI in [1] stood at 1.76 µM; in assay [2], 2.57 µM; in assay [3], 1.84 µM; in assay [4], 7.95 µM; in assay [5], 4.41 µM; in assay [7] it was 3.77 µM. Moreover, the TGI was 2.52 µM in assay [8]; 10.9 µM in assay [9]; 2.55 µM in assay [10]; 2.52 µM in assay [11]; 8.03 µM in assay [12]; 7.72 µM in assay [13].

On to `C/C(=N\Nc1nc2ccccc2o1)c1cc2ccccc2cn1`, for which the TGI in assay [1] was 2.55 µM; in assay [2] it was 15.8 µM; in assay [3] it was more than 20.3 µM; in [4] it was 7.85 µM; in assay [5] it was 8.75 µM; in assay [6], more than 46.3 µM. The TGI in [7] is 8.3 µM; in assay [8] it was 4.87 µM; in assay [9], 2.82 µM; in [10], more than 100 µM; in [12], more than 100 µM.
